# Measurements reported in PubChem BioAssay AID1996.
# Conditions: buffer; pH 7.4; 200.0 µM
row,Structure (SMILES),solubility kinetic
1,O=C(c1ccc([N+](=O)[O-])s1)N1CCc2ccccc2C1,2.8 µg/mL
2,O=C(NC1CC1)C1CCN(C(=O)c2ccc(Cl)cc2Cl)CC1,> 51.2 µg/mL
3,O=C(NCC(=O)N1CCN(Cc2ccccc2)CC1)c1cccs1,> 51.5 µg/mL
4,CC(Oc1cccnc1[N+](=O)[O-])C(=O)Nc1ccc(Cl)cn1 (centres undefined),17 µg/mL
5,Cc1ccc(NC(=S)N2CCN(c3ccccn3)CC2)cc1C,1.1 µg/mL
6,O=C(Cc1ccc(F)cc1)NC1CCCCCC1,> 37.4 µg/mL
7,COCCCNC(=S)Nc1ccc(C)cc1,> 35.8 µg/mL
8,CSc1nc(N)nc(C2CC2)n1,24.4 µg/mL
9,CCOc1ccccc1NC(=O)C(=O)NCCC1=CCCCC1,< 0.3 µg/mL
10,CCOc1cc(C(=O)NC)cc(Br)c1OC,> 43.2 µg/mL
11,Cc1cc2oc(=O)cc(CN3CCCCC3)c2cc1C,< 0.6 µg/mL
12,COc1cc(NC(=O)c2ccc(Cl)cc2)c2ncccc2c1,< 0.3 µg/mL
13,CC1=CC2=NC(=O)/C(=C/c3cccs3)C(=N)N2O1,2.8 µg/mL
14,Cc1cc(C)cc(OC(C)C(=O)NCCCn2ccnc2)c1 (centres undefined),33.4 µg/mL
15,CN(Cc1ccccc1)C(=O)N1CCOCC1,> 35.1 µg/mL
16,O=C(Nc1ccccc1Cl)c1ccc2ccccc2c1,< 0.6 µg/mL
17,Cc1nc(-c2cccc(NC(=O)c3ccc(Br)o3)c2)cs1,17.2 µg/mL
18,O=C(O)[C@H](Cc1ccccc1)NC(=O)N1CCCCCC1,> 43.6 µg/mL
19,O=C(O)CC/C(=N\NC(=O)CNC(=O)/C=C/c1ccccc1)c1ccccc1,> 56.9 µg/mL
20,Cc1ccc2nc(CCl)[n+]([O-])c(-c3ccccc3)c2c1,27.8 µg/mL
21,O=C(COC(=O)CCC(=O)c1cccs1)NC1CC1,> 42.2 µg/mL
22,Cc1cccc(NC(=O)Cc2ccc(-c3ccccc3)cc2)n1,3.6 µg/mL
23,COc1ccc(CNC(=O)c2sccc2-c2ccccc2)cc1OC,33.7 µg/mL
24,COc1cc(N=Cc2c(CO)cnc(C)c2O)cc(OC)c1OC,49.2 µg/mL
25,O=C(Nc1ccc(Cl)cc1)C1C2CCCCC21 (centres undefined),< 0.5 µg/mL

row,Structure (SMILES),solubility kinetic
1,Cc1ccccc1C(=O)Nc1scc(-c2ccc(Br)cc2)c1C(=O)O,3.5 µg/mL
2,Nc1nc(Cl)nc2ncn(Cc3ccccc3)c12,> 39 µg/mL
3,Nc1cc(N)nc(SCC(=O)NCC(=O)Nc2ccc(F)c(F)c2F)n1,51.3 µg/mL
4,O=C(CN1C(=O)NC2(CCCCC2)C1=O)Nc1ccc2c(c1)CCC2,5.1 µg/mL
5,COc1cccc(N=Cc2c(O)n(Cc3ccco3)c(=O)[nH]c2=O)c1,6.1 µg/mL
6,N#Cc1nc(-c2ccc(F)cc2)oc1NCc1ccco1,1.1 µg/mL
7,CS(=O)(=O)c1ccc2nc(NC(=O)c3ccccc3)sc2c1,1.5 µg/mL
8,CCOc1ccc(C2=CSC3=NCCN23)cc1,22.9 µg/mL
9,Cc1ccc(N2CN(CCc3ccccc3)CNC2=S)cc1,6.5 µg/mL
10,CCCNC(=O)c1cc2cc([N+](=O)[O-])ccc2s1,1.4 µg/mL
11,COCc1c(C(=O)NCCc2ccc(OC(F)F)cc2)oc2ccccc12,13.5 µg/mL
12,Cc1ccc2[nH]cc(S(=O)(=O)c3ccc(F)cc3)c(=O)c2c1,5.5 µg/mL
13,CCCc1c(C)nc2c(OC)cccc2c1SCC(=O)O,42.5 µg/mL
14,Cc1ccc(/C=C/C(=O)Oc2ccc(C#N)cc2)o1,< 0.5 µg/mL
15,O=C(/C=C/c1ccccc1Cl)OCC(=O)c1ccc[nH]1,6.3 µg/mL
16,COC1c2ccccc2C(=O)N1Cc1ccc(F)cc1 (centres undefined),37.4 µg/mL
17,O=C(COC(=O)/C=C/c1ccc(Br)o1)Nc1cccc(S(=O)(=O)N2CCOCC2)c1,5.9 µg/mL
18,Cc1ccc(CNC(=O)COC(=O)C2CC2)cc1,> 37.1 µg/mL
19,O=C(O)C1CC(c2ccccc2)=Nc2ccccc2S1 (centres undefined),9.8 µg/mL
20,Cc1ccc(S(=O)(=O)N2CCC(C(=O)NCCCN3CCCC3=O)CC2)cc1,51.9 µg/mL
21,O=C(COC(=O)/C=C/c1ccco1)Nc1ccccc1,13.5 µg/mL
22,CN(C(=O)CSc1nccc(=O)[nH]1)C1CCCCC1,> 42.2 µg/mL
23,CC/C(C)=N/Oc1nc(C)cc(C)n1,28.5 µg/mL
24,CCOC(=O)Cn1c(C)cc(COC)c(C#N)c1=O,> 39.6 µg/mL
